Data from US4364958A, “1-Substituted-3-cycloalkyl-sulfonyl-pyrrolidine-2,5-dione derivatives and fungicidal compositions thereof” (Chinoin Gyogyszer es Vegyeszeti Termekek Gyara Rt., priority 1979, dated 1982).
Where two headings read alike, the source gives them in different places.

Tests used:
Assay in all cases: minimal inhibitory concentration in Sabouraud medium
Type in all cases: cell-based
[1] = system: Sporotrichum schenkii CBS.34035; settings: Sporotrichum
Excerpt: Sporotrichum schenkii CBS.34035
(§1) As a medium Saboroud medium was employed.

[2] = system: Aspergillus niger CBS.12648; settings: Aspergillus niger
Excerpt: Aspergillus niger CBS.12648
as §1

[3] = system: Trichophyton rubrum CBS.30338; settings: Trichophyton rubrum
Excerpt: Trichophyton rubrum CBS.30338
as §1

[4] = system: Trichophyton mentagrophytes CBS.50148; settings: Trichophyton mentagrophytes
Excerpt: Trichophyton mentagrophytes CBS.50148
as §1

[5] = system: Candida albicans CBS.562; settings: Candida albicans
Excerpt: Candida albicans CBS.562 "2"
as §1

[6] = system: Penicillium digitatum CBS.31948; settings: Penicillium digitatum
Excerpt: Penicillium digitatum CBS.31948
as §1

[7] = system: Saccharomyces cerevisiae OKI.1282; settings: Saccharomyces cerevisiae
Excerpt: Saccharomyces cerevisiae OKI.1282
as §1

[8] = system: Epidermophyton floccosum OKI/IV.; settings: Epidermophyton floccosum
Excerpt: Epidermophyton floccosum OKI/IV.
as §1

[9] = CBS.50148, 72 h, 72 hours, read-out: minimal inhibitory concentration
[10] = CBS.50148, 144 h, 144 hours, read-out: minimal inhibitory concentration
[11] = CBS.50148, 288 h, 288 hours, read-out: minimal inhibitory concentration
[12] = 72 h, read-out: minimal inhibitory concentration
[13] = 144 h, read-out: minimal inhibitory concentration
[14] = 288 h, read-out: minimal inhibitory concentration
[15] = CBS.50148, read-out: Minimal inhibitory concentration inhibiting the growth
[16] = read-out: Minimal inhibitory concentration inhibiting the growth

Measured: MIC

O=C1CC(S(=O)(=O)C2CCCCC2)C(=O)N1c1ccccc1[N+](=O)[O-] (centres unmarked) [1-(o-nitrophenyl)-3-cyclohexyl-sulfonyl-pyrrolidine-2,5-dione]
25 µg/mL: [6]; CBS.31948, 72 h, 72 hours
75 µg/mL: [3]; CBS.30338, 288 h, 288 hours | [4]; [9] | [5]; CBS.562, 24 h, 24 hours | [8]; [12]
200 µg/mL: [2]; CBS.12648, 144 h, 144 hours | [2]; CBS.12648, 288 h, 288 hours | [7]; OKI.1282, 48 h, 48 hours
150 µg/mL: [2]; CBS.12648, 72 h, 72 hours | [4]; [10] | [4]; [11] | [5]; CBS.562, 48 h, 48 hours | [8]; [14]
10 µg/mL: [1]; CBS.34035, 72 h, 72 hours
50 µg/mL: [1]; CBS.34035, 144 h, 144 hours | [1]; CBS.34035, 288 h, 288 hours | [3]; CBS.30338, 72 h, 72 hours | [3]; CBS.30338, 144 h, 144 hours | [6]; CBS.31948, 144 h, 144 hours | [6]; CBS.31948, 288 h, 288 hours
100 µg/mL: [7]; OKI.1282, 24 h, 24 hours | [8]; [13]

Cc1ccccc1N1C(=O)CC(S(=O)(=O)C2CCCCC2)C1=O (centres unmarked) [1-(o-tolyl)-3-cyclohexyl-sulfonyl-pyrrolidine-2,5-dione]
25 µg/mL: [1]; CBS.34035, 144 h, 144 hours | [3]; CBS.30338, 144 h, 144 hours | [4]; [10] | [4]; [11] | [7]; OKI.1282, 24 h, 24 hours | [7]; OKI.1282, 48 h, 48 hours
10 µg/mL: [1]; CBS.34035, 72 h, 72 hours | [3]; CBS.30338, 72 h, 72 hours | [4]; [9] | [6]; CBS.31948, 72 h, 72 hours | [8]; [13] | [8]; [14]
150 µg/mL: [2]; CBS.12648, 144 h, 144 hours | [2]; CBS.12648, 288 h, 288 hours
100 µg/mL: [2]; CBS.12648, 72 h, 72 hours | [5]; CBS.562, 48 h, 48 hours
75 µg/mL: [5]; CBS.562, 24 h, 24 hours
50 µg/mL: [1]; CBS.34035, 288 h, 288 hours | [3]; CBS.30338, 288 h, 288 hours | [6]; CBS.31948, 144 h, 144 hours | [6]; CBS.31948, 288 h, 288 hours
5 µg/mL: [8]; [12]

O=C1CC(S(=O)(=O)C2CCCCC2)C(=O)N1c1ccc([N+](=O)[O-])cc1 (centres unmarked) [1-(p-nitrophenyl)-3-cyclohexylsulfonyl-pyrrolidine-2,5-dione]
100 µg/mL: [4]; [10] | [4]; [11] | [6]; CBS.31948, 72 h, 72 hours | [8]; [12]
75 µg/mL: [2]; CBS.12648, 72 h, 72 hours | [3]; CBS.30338, 72 h, 72 hours | [3]; CBS.30338, 144 h, 144 hours | [4]; [9] | [5]; CBS.562, 24 h, 24 hours
50 µg/mL: [7]; OKI.1282, 48 h, 48 hours
150 µg/mL: [2]; CBS.12648, 144 h, 144 hours | [2]; CBS.12648, 288 h, 288 hours | [3]; CBS.30338, 288 h, 288 hours | [5]; CBS.562, 48 h, 48 hours | [6]; CBS.31948, 144 h, 144 hours | [6]; CBS.31948, 288 h, 288 hours | [8]; [13] | [8]; [14]
25 µg/mL: [1]; CBS.34035, 72 h, 72 hours | [1]; CBS.34035, 144 h, 144 hours | [1]; CBS.34035, 288 h, 288 hours | [7]; OKI.1282, 24 h, 24 hours

Cc1cccc(N2C(=O)CC(S(=O)(=O)C3CCCCC3)C2=O)c1 (centres unmarked) [1-m(tolyl)-3-cyclohexyl-sulfonyl-pyrrolidine-2,5-dione]
50 µg/mL: [1]; CBS.34035, 288 h, 288 hours | [4]; [11] | [5]; CBS.562, 24 h, 24 hours
100 µg/mL: [2]; CBS.12648, 144 h, 144 hours | [5]; CBS.562, 48 h, 48 hours
5 µg/mL: [3]; CBS.30338, 72 h, 72 hours | [4]; [9] | [8]; [12]
150 µg/mL: [2]; CBS.12648, 288 h, 288 hours
75 µg/mL: [2]; CBS.12648, 72 h, 72 hours
25 µg/mL: [1]; CBS.34035, 144 h, 144 hours | [3]; CBS.30338, 288 h, 288 hours | [4]; [10] | [6]; CBS.31948, 144 h, 144 hours | [6]; CBS.31948, 288 h, 288 hours | [7]; OKI.1282, 24 h, 24 hours | [7]; OKI.1282, 48 h, 48 hours | [8]; [14]
10 µg/mL: [1]; CBS.34035, 72 h, 72 hours | [3]; CBS.30338, 144 h, 144 hours | [6]; CBS.31948, 72 h, 72 hours | [8]; [13]

O=C1CC(S(=O)(=O)C2CCCCC2)C(=O)N1 (centres unmarked) [3-Cyclohexyl-sulfonyl-pyrrolidine-2,5-dione]
75 µg/mL: [3]; CBS.30338, 144 h, 144 hours | [3]; CBS.30338, 288 h, 288 hours | [4]; [11]
50 µg/mL: [3]; CBS.30338, 72 h, 72 hours | [4]; [9] | [4]; [10] | [4]; [15] | [6]; CBS.31948, 72 h, 72 hours | [6]; CBS.31948, 144 h, 144 hours | [6]; CBS.31948, 288 h, 288 hours
25 µg/mL: [8]; [12] | [8]; [13] | [8]; [14] | [8]; [16]
150 µg/mL: [1]; CBS.34035, 72 h, 72 hours | [1]; CBS.34035, 144 h, 144 hours | [1]; CBS.34035, 288 h, 288 hours

COC(=O)c1ccc(N2C(=O)CC(S(=O)(=O)C3CCCCC3)C2=O)cc1OC(C)=O (centres unmarked) [Example 7, 1-(3-Acetoxy-4-methoxycarbonyl-phenyl)-3-cyclohexyl-sulfonyl-pyrrolidine-2,5-dione]
150 µg/mL: [1]; CBS.34035, 288 h, 288 hours
10 µg/mL: [8]; [12] | [8]; [13] | [8]; [14] | [8]; [16]
2.5 µg/mL: [4]; [9] | [4]; [10] | [4]; [11] | [4]; [15]
100 µg/mL: [1]; CBS.34035, 144 h, 144 hours | [6]; CBS.31948, 288 h, 288 hours
25 µg/mL: [3]; CBS.30338, 72 h, 72 hours | [3]; CBS.30338, 144 h, 144 hours
200 µg/mL: [2]; CBS.12648, 72 h, 72 hours | [2]; CBS.12648, 144 h, 144 hours | [2]; CBS.12648, 288 h, 288 hours
50 µg/mL: [1]; CBS.34035, 72 h, 72 hours | [3]; CBS.30338, 288 h, 288 hours | [6]; CBS.31948, 72 h, 72 hours | [6]; CBS.31948, 144 h, 144 hours
